Measured values from PMC10957983, “The binding and mechanism of a positive allosteric modulator of Kv3 channels” (Nature Communications, 2024).

Tests used:
Kv3.1 = target: T1, Kv3.1 (Homo sapiens, UniProt P48547); test: cryo-EM structure of the complex ([…] Å); supported by TEVC of Kv3.[…] and binding-site mutants
T1 construct: gene KCNC1; Full-length human Kv3.1 (isoform A)
T1 sequence (P48547 1-511): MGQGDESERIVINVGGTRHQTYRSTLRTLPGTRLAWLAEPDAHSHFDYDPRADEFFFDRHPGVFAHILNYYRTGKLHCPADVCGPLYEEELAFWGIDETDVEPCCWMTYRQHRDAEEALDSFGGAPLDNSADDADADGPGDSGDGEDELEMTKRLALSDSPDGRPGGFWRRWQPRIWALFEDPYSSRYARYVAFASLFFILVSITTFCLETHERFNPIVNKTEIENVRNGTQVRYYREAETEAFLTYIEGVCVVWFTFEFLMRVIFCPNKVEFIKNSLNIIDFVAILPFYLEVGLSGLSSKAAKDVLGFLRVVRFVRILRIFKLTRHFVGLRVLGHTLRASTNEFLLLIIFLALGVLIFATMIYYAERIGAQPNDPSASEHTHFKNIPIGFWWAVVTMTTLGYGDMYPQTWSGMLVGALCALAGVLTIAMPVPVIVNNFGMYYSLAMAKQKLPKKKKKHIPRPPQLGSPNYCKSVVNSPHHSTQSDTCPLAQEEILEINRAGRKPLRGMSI

Kv3.2 = target: T2, Kv3.2 (Homo sapiens, UniProt Q96PR1); test: TEVC in Xenopus oocytes, concentration dependence of ΔV0.[…]; format: cell-based
T2 construct: gene KCNC2
T2 sequence (Q96PR1 1-638): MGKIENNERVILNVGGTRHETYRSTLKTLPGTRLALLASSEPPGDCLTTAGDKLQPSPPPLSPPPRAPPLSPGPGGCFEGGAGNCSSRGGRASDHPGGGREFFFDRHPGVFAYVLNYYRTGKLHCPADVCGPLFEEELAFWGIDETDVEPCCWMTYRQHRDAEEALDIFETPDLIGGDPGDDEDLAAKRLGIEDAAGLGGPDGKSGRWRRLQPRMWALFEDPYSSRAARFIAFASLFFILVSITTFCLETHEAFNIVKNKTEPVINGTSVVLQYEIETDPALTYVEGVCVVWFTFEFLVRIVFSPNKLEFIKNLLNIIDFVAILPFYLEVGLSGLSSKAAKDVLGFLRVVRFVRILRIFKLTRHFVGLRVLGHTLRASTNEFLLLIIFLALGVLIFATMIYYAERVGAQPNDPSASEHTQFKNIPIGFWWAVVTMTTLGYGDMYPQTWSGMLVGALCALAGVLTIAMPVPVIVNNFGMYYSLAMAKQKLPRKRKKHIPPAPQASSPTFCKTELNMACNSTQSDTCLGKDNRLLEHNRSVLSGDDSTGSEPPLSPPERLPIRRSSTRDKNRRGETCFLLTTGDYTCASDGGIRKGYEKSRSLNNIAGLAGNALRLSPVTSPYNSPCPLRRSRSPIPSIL

- EC50 (Kv3.2): 3.2 µM
SMILES: CC[C@H]1NC(=O)N(c2ccc(Oc3cccc4c3C3(CC3)CO4)nc2)C1=O [AUT5, (5 R)-5-ethyl-3-[6-(spiro[1-benzofuran-3,1’-cyclopropan]-4-yloxy)-3-pyridinyl]-2,4-imidazolidinedione]
- cryo-EM structure of the complex (2.5 Å); supported by TEVC of Kv3.1 and binding (Kv3.1): A non-protein in the electron density map consistent with AUT5 is found in a cavity between S4 and S5 helices
